Test results published in patent publication US10227342B2 (ARIAD PHARMACEUTICALS, INC., priority 2014, dated 2019).

Legend:
Format in all cases: cell-based
[1] = target: human EGFR exon 20 insertion ASV (V769_D770insASV) (Homo sapiens (Human), UniProt P00533, INS769ASV); assay: Ba/F3-EGFR-Exon20-ASV cell anti-proliferative assay (CellTiter 96 MTS, 72 h); details: Ba/F3-EGFR-Exon20-ASV cells;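 also: Ba/F3 cells bearing the EGFR exon 20 ASV insertion, a line able to proliferate without IL-3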
[2] = target: human EGFR exon 20 insertion NPG (H773_V774insNPG) (Homo sapiens, UniProt P00533, INS773NPG, cells depend on it); assay: Ba/F3-EGFR-Exon20-NPG cell anti-proliferative assay (CellTiter 96 MTS, 72 h); details: read-out: EGFR exon 20 NPG insertion IC50
[3] = target: human EGFR E746-A750 deletion and T790M Mutation (DT) (Homo sapiens (Human), UniProt P00533, DEL746-750/T790M); assay: Ba/F3-EGFR-Del/T790M cell anti-proliferative assay (CellTiter 96 MTS, 72 h); details: Ba/F3-EGFR-Del/T790M cells; read-out: EGFR exon 19 deletion and T790M mutation IC50
[4] = target: Her2 exon 20 YVMA insertion (A775_G776ins YVMA) (Homo sapiens (Human), UniProt P04626, INS775YVMA); assay: Ba/F3-Her2 Exon20 YVMA cell anti-proliferative assay (CellTiter 96 MTS, 72 h); details: Ba/F3-Her2 Exon20 YVMA cells
From the text: Ba/F3 cells expressing Her2 Exon20 YVMA insertions (named Ba/F3-Her2 Exon20 YVMA) can proliferate in the absence of IL-3.

Chain of Her2 exon 20 YVMA insertion (A775_G776ins YVMA) (P04626 other isoform, or with tags, fused parts or gaps ins YVMA behind 775): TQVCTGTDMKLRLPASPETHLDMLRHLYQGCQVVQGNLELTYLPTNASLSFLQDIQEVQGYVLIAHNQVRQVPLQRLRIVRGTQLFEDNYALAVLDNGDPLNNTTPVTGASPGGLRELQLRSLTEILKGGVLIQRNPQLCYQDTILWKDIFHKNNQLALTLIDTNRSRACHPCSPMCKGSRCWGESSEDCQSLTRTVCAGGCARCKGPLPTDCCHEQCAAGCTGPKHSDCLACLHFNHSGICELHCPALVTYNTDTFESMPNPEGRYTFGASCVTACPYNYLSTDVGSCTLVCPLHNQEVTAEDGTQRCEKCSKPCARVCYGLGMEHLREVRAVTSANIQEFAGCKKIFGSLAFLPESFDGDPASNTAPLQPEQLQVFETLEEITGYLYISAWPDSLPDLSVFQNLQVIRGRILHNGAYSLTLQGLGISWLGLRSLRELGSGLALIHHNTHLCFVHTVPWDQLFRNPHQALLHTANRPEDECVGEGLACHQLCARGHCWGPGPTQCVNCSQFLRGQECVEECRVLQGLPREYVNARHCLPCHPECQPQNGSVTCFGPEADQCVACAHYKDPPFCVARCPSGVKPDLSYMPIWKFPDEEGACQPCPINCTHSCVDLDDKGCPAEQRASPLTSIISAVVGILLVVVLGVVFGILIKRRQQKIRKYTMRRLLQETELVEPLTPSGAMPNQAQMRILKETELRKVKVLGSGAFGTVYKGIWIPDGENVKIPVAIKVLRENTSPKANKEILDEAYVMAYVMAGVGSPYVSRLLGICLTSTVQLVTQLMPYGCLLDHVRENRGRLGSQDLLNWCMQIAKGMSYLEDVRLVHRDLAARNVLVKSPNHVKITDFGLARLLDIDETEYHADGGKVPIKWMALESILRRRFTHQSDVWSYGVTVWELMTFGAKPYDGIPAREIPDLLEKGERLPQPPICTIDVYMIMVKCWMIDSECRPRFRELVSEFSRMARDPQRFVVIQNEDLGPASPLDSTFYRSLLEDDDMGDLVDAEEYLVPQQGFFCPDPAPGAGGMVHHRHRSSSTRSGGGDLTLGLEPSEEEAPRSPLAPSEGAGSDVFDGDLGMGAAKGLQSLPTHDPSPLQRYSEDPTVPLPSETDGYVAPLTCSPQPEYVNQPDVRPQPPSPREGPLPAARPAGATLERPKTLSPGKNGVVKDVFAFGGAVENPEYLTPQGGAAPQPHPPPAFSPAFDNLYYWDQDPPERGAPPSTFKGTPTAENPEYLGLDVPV
Chain of human EGFR E746-A750 deletion and T790M Mutation (DT) (P00533 other isoform, or with tags, fused parts or gaps T790M/del E746-A750): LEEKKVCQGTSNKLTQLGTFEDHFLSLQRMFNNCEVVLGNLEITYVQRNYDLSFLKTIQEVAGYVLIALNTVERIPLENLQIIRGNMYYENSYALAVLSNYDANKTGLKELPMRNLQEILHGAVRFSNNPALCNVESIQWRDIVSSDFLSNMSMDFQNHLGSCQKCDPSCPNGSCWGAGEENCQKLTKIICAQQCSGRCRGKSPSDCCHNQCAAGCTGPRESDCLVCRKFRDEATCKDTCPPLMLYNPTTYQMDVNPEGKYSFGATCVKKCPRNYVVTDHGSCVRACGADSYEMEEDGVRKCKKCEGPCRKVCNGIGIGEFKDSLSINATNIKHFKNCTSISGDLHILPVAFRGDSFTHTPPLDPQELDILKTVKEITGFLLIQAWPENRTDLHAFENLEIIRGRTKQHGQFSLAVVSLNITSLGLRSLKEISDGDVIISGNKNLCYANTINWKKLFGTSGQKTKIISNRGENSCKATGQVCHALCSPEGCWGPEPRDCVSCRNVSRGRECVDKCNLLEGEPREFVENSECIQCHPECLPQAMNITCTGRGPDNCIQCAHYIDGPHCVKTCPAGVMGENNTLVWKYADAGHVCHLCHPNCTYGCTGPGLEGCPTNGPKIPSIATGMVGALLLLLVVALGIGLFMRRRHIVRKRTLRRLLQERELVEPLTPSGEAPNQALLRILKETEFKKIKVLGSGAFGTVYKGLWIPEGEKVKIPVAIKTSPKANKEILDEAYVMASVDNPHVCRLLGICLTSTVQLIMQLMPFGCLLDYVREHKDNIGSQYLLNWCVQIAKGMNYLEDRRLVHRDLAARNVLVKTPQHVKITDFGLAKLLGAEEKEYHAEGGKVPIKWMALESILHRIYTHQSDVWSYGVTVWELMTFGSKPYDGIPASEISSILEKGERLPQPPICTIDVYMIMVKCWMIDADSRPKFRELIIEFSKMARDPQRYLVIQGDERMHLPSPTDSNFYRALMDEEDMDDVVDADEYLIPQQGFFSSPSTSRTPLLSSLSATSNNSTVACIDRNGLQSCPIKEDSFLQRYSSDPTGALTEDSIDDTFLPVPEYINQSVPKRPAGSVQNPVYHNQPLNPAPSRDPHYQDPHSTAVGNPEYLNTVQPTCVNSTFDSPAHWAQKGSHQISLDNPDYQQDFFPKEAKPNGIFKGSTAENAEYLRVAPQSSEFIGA
Chain of human EGFR exon 20 insertion ASV (V769_D770insASV) (P00533 other isoform, or with tags, fused parts or gaps ins ASV behind 769): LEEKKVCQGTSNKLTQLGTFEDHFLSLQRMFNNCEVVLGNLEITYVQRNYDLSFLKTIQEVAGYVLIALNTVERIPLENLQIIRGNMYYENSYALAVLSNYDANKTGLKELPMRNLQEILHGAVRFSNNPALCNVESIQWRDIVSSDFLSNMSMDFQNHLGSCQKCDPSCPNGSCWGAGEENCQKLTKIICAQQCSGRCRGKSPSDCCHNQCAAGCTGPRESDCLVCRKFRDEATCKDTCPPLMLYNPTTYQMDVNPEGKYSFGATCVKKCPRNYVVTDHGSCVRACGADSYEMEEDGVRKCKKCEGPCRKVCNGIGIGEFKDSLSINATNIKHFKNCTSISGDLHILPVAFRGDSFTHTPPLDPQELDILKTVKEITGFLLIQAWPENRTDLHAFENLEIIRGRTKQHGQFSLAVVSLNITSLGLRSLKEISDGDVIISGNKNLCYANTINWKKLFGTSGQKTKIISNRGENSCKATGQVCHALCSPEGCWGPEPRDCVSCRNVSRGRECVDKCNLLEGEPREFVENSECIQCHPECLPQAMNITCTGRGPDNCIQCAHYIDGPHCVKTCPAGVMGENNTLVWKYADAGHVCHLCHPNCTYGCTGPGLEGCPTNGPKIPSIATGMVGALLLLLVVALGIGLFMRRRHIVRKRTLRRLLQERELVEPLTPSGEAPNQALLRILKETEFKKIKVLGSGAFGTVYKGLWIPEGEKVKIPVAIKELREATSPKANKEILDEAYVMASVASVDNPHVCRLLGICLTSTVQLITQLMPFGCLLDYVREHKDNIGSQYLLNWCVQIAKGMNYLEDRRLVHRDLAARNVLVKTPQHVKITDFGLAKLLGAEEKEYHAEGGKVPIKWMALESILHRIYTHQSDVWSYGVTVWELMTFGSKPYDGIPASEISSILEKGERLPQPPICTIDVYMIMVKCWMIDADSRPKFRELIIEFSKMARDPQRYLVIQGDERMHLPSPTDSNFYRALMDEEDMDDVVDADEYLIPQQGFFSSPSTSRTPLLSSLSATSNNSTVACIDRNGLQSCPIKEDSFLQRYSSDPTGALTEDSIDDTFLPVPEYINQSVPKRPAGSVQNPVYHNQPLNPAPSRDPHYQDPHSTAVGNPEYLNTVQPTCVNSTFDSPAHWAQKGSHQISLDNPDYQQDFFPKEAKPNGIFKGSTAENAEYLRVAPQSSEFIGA
Chain of human EGFR exon 20 insertion NPG (H773_V774insNPG) (P00533 with tags, fused parts or gaps INS773NPG limits assumed): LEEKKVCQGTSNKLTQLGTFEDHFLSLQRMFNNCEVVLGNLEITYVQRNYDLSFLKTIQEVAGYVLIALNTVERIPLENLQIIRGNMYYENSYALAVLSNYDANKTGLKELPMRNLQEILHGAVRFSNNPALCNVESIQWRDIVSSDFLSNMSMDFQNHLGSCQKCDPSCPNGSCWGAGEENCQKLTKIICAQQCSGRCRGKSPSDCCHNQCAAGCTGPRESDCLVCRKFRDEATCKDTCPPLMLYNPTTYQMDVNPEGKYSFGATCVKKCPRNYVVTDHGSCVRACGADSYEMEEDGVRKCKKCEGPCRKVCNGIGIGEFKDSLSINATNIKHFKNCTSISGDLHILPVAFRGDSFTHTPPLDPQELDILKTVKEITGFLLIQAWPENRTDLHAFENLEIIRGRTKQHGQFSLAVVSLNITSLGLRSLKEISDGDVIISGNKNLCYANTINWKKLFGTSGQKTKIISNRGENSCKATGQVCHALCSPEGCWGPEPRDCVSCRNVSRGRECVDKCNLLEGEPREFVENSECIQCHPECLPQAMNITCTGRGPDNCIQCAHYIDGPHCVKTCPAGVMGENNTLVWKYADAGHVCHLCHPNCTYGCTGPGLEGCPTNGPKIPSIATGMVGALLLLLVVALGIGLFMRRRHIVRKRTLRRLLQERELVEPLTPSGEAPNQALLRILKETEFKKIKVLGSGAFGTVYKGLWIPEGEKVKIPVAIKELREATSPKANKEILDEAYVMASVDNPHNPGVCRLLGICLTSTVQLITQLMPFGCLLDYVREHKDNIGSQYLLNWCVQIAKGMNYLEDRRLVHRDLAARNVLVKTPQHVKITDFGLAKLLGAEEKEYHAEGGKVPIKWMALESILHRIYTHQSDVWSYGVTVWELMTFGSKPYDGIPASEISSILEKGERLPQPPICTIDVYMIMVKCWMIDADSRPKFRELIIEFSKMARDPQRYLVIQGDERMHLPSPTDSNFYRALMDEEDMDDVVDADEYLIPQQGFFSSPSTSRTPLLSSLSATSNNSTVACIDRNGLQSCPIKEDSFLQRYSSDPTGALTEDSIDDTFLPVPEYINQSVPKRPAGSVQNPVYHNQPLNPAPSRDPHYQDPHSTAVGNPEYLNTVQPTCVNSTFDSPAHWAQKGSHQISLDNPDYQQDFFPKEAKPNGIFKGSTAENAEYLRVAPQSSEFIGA

Structure (SMILES)	IC50 [1]	IC50 [2]	IC50 [3]	IC50 [4]
C=CC(=O)Nc1ccc(OC)c(Nc2ncc(Cl)c(-c3cn(C)c4cc(OCCN5CCN(C)CC5)ccc34)n2)c1 [Example 18, N-(3-((5-chloro-4-(1-methyl-6-(2-(4-methylpiperazin-1-yl)ethoxy)-1H-indol-3-yl)pyrimidin-2-yl)amino)-4-methoxyphenyl)acrylamide]	> 1 µM	0.1 to 0.5 µM	< 0.1 µM	> 1 µM
C=CC(=O)Nc1cc(Nc2ncc(C(=O)OC(C)CC)c(-c3cn(C)c4ccccc34)n2)c(OC)cc1N(C)CCN(C)C (stereo not drawn) [Example 29, sec-butyl 2-((5-acrylamido-4-((2-(dimethylamino)ethyl)(methyl)amino)-2-methoxyphenyl)amino)-4-(1-methyl-1H-indol-3-yl)pyrimidine-5-carboxylate]	< 0.1 µM	< 0.1 µM	< 0.1 µM	< 0.1 µM
C=CC(=O)Nc1cc(Nc2ncc(NC(=O)C(C)(C)C)c(-c3cn(C)c4ccccc34)n2)c(OC)cc1N(C)CCN(C)C [Example 41, N-(2-((2-(dimethylamino)ethyl)-(methyl)amino)-4-methoxy-5-((4-(1-methyl-1H-indol-3-yl)-5-pivalamidopyrimidin-2-yl)amino)phenyl)acrylamide]	0.5 to 1 µM	0.1 to 0.5 µM	> 1 µM	> 1 µM
C=CC(=O)Nc1cc(Nc2ncc(NC(=O)C(C)C)c(-c3cn(C)c4ccccc34)n2)c(OC)cc1N(C)CCN(C)C [Example 39, N-(2-((2-(dimethylamino)ethyl)-(methyl)amino)-5-((5-isobutyramido-4-(1-methyl-1H-indol-3-yl)pyrimidin-2-yl)amino)-4-methoxyphenyl)-acrylamide]	0.1 to 0.5 µM	< 0.1 µM	> 1 µM	> 1 µM
C=CC(=O)Nc1cc(Nc2ncc(C(=O)OC)c(-n3ccc4ccccc43)n2)c(OC)cc1N(C)C[C@H]1CCCN1C [Example 63, methyl (R)-2-((5-acrylamido-2-methoxy-4-(methyl((1-methylpyrrolidin-2-yl)methyl)amino)phenyl)amino)-4-(1H-indol-1-yl)pyrimidine-5-carboxylate]	< 0.1 µM	< 0.1 µM	< 0.1 µM	0.5 to 1 µM
C=CC(=O)Nc1cc(Nc2ncc(C(=O)OC(C)C)c(-c3cn(C4CC4)c4ccccc34)n2)c(OC)cc1N(C)CCN(C)C [Example 79, isopropyl 2-((5-acrylamido-4-((2-(dimethylamino)ethyl)(methyl)amino)-2-methoxyphenyl)amino)-4-(1-cyclopropyl-1H-indol-3-yl)pyrimidine-5-carboxylate]	< 0.1 µM	< 0.1 µM	< 0.1 µM	0.1 to 0.5 µM
C=CC(=O)Nc1cc(Nc2ncc(C(=O)OC3CN(C)C3)c(-c3cn(C)c4ccccc34)n2)c(OC)cc1N(C)CCN(C)C [Example 12, 1-methylazetidin-3-yl 2-((5-acrylamido-4-((2-(dimethylamino)ethyl)(methyl)amino)-2-methoxyphenyl)amino)-4-(1-methyl-1H-indol-3-yl)pyrimidine-5-carboxylate]	> 1 µM	> 1 µM	> 1 µM	> 1 µM
C=CC(=O)Nc1cc(Nc2ncc(C(=O)OC(C)C)c(-c3coc4ccccc34)n2)c(OC)cc1N(C)C[C@H]1CCCN1C [Example 62, isopropyl (R)-2-((5-acrylamido-2-methoxy-4-(methyl((1-methylpyrrolidin-2-yl)methyl)amino)phenyl)amino)-4-(benzofuran-3-yl)pyrimidine-5-carboxylate]	< 0.1 µM	< 0.1 µM	< 0.1 µM	0.1 to 0.5 µM
C=CC(=O)Nc1cc(Nc2ncc(C(=O)OC(C)C)c(-n3cc(C)c4ccccc43)n2)c(OC)cc1N(C)CCN(C)C [Example 97, isopropyl 2-((5-acrylamido-4-((2-(dimethylamino)ethyl)(methyl)amino)-2-methoxyphenyl)amino)-4-(3-methyl-1H-indol-1-yl)pyrimidine-5-carboxylate]	0.1 to 0.5 µM	< 0.1 µM	< 0.1 µM	0.1 to 0.5 µM
C=CC(=O)Nc1cc(Nc2ncc(C(=O)OC)c(-c3cn(C)c4ccccc34)n2)c(OC)cc1N(C)CCN(C)C [Example 8, methyl 2-((5-acrylamido-4-((2-(dimethylamino)ethyl)(methyl)amino)-2-methoxyphenyl)amino)-4-(1-methyl-1H-indol-3-yl)pyrimidine-5-carboxylate]	< 0.1 µM	< 0.1 µM	< 0.1 µM	< 0.1 µM
C=CC(=O)Nc1cc(Nc2ncc(Cl)c(-c3cnn4ccccc34)n2)c(OC)cc1OCCN(C)C [Example 51, N-(5-((5-chloro-4-(pyrazolo[1,5-a]pyridin-3-yl)pyrimidin-2-yl)amino)-2-(2-(dimethylamino)ethoxy)-4-methoxyphenyl)acrylamide]	0.1 to 0.5 µM	< 0.1 µM	< 0.1 µM	0.1 to 0.5 µM
C=CC(=O)Nc1cc(Nc2nccc(-c3cn(C)c4ccc(C(=O)OC)cc34)n2)c(OC)cc1N(C)CCN(C)C [Example 81, methyl 3-(2-((5-acrylamido-4-((2-(dimethylamino)ethyl)(methyl)amino)-2-methoxyphenyl)amino)pyrimidin-4-yl)-1-methyl-1H-indole-5-carboxylate]	0.1 to 0.5 µM	< 0.1 µM	< 0.1 µM	0.5 to 1 µM
C=CC(=O)Nc1cc(Nc2ncc(C(=O)OC3COC3)c(-c3cn(C)c4ccccc34)n2)c(OC)cc1N(C)CCN(C)C [Example 11, oxetan-3-yl 2-((5-acrylamido-4-((2-(dimethylamino)ethyl)(methyl)amino)-2-methoxyphenyl)amino)-4-(1-methyl-1H-indol-3-yl)pyrimidine-5-carboxylate]	< 0.1 µM	< 0.1 µM	< 0.1 µM	< 0.1 µM
C=CC(=O)Nc1ccc(OC)c(Nc2ncc(C#N)c(-c3cn(C)c4cc(OCC5CCCN5C)ccc34)n2)c1 (stereo not drawn) [Example 21, N-(3-((5-cyano-4-(1-methyl-6-((1-methylpyrrolidin-2-yl)methoxy)-1H-indol-3-yl)pyrimidin-2-yl)amino)-4-methoxyphenyl)acrylamide]	0.5 to 1 µM	< 0.1 µM	< 0.1 µM	0.5 to 1 µM
C=CC(=O)Nc1ccc(OC)c(Nc2ncc(C#N)c(-c3cn(C)c4cc(OCCCN(C)C)ccc34)n2)c1 [Example 19, N-(3-((5-cyano-4-(6-(3-(dimethylamino)propoxy)-1-methyl-1H-indol-3-yl)pyrimidin-2-yl)amino)-4-methoxyphenyl)acrylamide]	0.1 to 0.5 µM	< 0.1 µM	< 0.1 µM	0.5 to 1 µM
C=CC(=O)Nc1cc(Nc2ncc(C(=O)OC(C)C)c(-c3cn(C)c4c(OC)cccc34)n2)c(OC)cc1N(C)CCN(C)C [Example 31, isopropyl 2-((5-acrylamido-4-((2-(dimethylamino)ethyl)(methyl)amino)-2-methoxyphenyl)amino)-4-(7-methoxy-1-methyl-1H-indol-3-yl)pyrimidine-5-carboxylate]	< 0.1 µM	< 0.1 µM	< 0.1 µM	< 0.1 µM
C=CC(=O)Nc1cc(Nc2ncc(C(=O)OCC#N)c(-c3cn(C)c4ccccc34)n2)c(OC)cc1N(C)CCN(C)C [Example 38, cyanomethyl 2-((5-acrylamido-4-((2-(dimethylamino)ethyl)(methyl)amino)-2-methoxyphenyl)amino)-4-(1-methyl-1H-indol-3-yl)pyrimidine-5-carboxylate]	< 0.1 µM	< 0.1 µM	< 0.1 µM	< 0.1 µM
C=CC(=O)Nc1cc(Nc2ncc(C(=O)OCC3CC3)c(-c3cn(C)c4ccccc34)n2)c(OC)cc1N(C)CCN(C)C [Example 13, cyclopropylmethyl 2-((5-acrylamido-4-((2-(dimethylamino)ethyl)(methyl)amino)-2-methoxyphenyl)amino)-4-(1-methyl-1H-indol-3-yl)pyrimidine-5-carboxylate]	< 0.1 µM	< 0.1 µM	< 0.1 µM	< 0.1 µM
C=CC(=O)Nc1cc(Nc2nccc(-c3cn(C)c4ccccc34)n2)c(OC)cc1N(C)CCNC [Example 57, N-(4-methoxy-2-(methyl(2-(methylamino)ethyl)amino)-5-((4-(1-methyl-1H-indol-3-yl)pyrimidin-2-yl)amino)phenyl)acrylamide]	0.1 to 0.5 µM	< 0.1 µM	–	0.1 to 0.5 µM
C=CC(=O)Nc1cc(Nc2ncc(Cl)c(-c3cn(C)c4ccccc34)n2)c(OC)cc1O[C@@H](COCC)CN(C)C [Example 44, (R)-N-(5-((5-chloro-4-(1-methyl-1H-indol-3-yl)pyrimidin-2-yl)amino)-2-((1-(dimethylamino)-3-ethoxypropan-2-yl)oxy)-4-methoxyphenyl)acrylamide]	–	0.1 to 0.5 µM	< 0.1 µM	0.5 to 1 µM
C=CC(=O)Nc1cc(Nc2ncc(Cl)c(-c3cn(C)c4c5c(ccc34)CCC5)n2)c(OC)cc1N(C)CCN(C)C [Example 43, N-(5-((5-chloro-4-(1-methyl-1,6,7,8-tetrahydrocyclopenta[g]indol-3-yl)pyrimidin-2-yl)amino)-2-((2-(dimethylamino)ethyl)(methyl)amino)-4-methoxyphenyl)acrylamide]	–	< 0.1 µM	< 0.1 µM	0.1 to 0.5 µM
